From patent US7135502B1, “Colchinol derivatives as vascular damaging agents” (priority 1999, dated 2006)

Tests used:
[1] = test system: tubulin; assay: Tubulin polymerisation assay; assay type: biochemical; conditions: method of O. Boye et al Med. Chem. Res., 1991, 1, 142-150
Description: The ability of the compounds to bind to preparations of mammalian tubulin can be evaluated by a number of methods available in the literature, for example by following temperature initiated tubulin polymerisation by turbidity in the absence and presence of the compound (for example O. Boye et al Med. Chem. Res., 1991, 1, 142–150).

[2] = test system: CaNT tumour vasculature; assay: Activity against tumour vasculature measured by fluorescent dye (Hoechst 33342), tumour functional vascular volume; assay type: in vivo; conditions: fluorescent dye method, CaNT tumour-bearing mice, dye 24 hours after drug treatment; for % Decrease in vascular volume: intraperitoneal, dose not given
Description: (b) Activity Against Tumour Vasculature Measured by Fluorescent Dye
Tumour functional vascular volume of CaNT tumour-bearing mice was measured using the fluorescent dye Hoechst 33342 according to the method of Smith et al (Brit. Jnl. Cancer 1988, 57, 247–253). Five animals were used in control and treated group. The fluorescent dye was dissolved in saline at 6.25 mg/ml and injected intravenously at 10 mg/kg 24 hours after intraperitoneal drug treatment. One minute later, animals were killed and tumours excised and frozen; 10 μm sections were cut at 3 different levels and observed under UV illumination using an Olympus microscope equipped with epifluorescence. Blood vessels were identified by their fluorescent outlines and vascular volume was quantified using a point scoring system based on that described by Chalkley, (Jnl. Natl. Cancer Inst., 1943, 4, 47–53). All estimates were based on counting a minimum of 100 fields from sections cut at the 3 different levels.

[3] = test system: vasculature; conditions: at maximum tolerated dose; Lancet, 1994, 344, 1267-1271; cited from earlier work

Question: For `COc1cc2c(c(OC)c1OC)-c1ccc(N)cc1C(NC(C)=O)CC2` (centres unmarked) [N-[3-amino-9,10,11-trimethoxy-6,7-dihydro-5H-dibenzo[a,c]cyclohepten-5-yl]acetamide], which IC50 [1] is on record?
Answer: The IC50 was 58 µM.

Question: What about the “decrease in perfused vascular volume relative to control” value ([2]; 50 mg/kg intraperitoneally) of the same compound?
Answer: Its value is 88%.

Question: For `COc1cc2c(c(OC)c1OC)-c1ccc(NC(=O)[C@H](C)N)cc1C(NC(C)=O)CC2` (some centres unmarked) [Example 2, N-[3-(alanylamino)-9,10,11-trimethoxy-6,7-dihydro-5H-dibenzo[a,c]cyclohepten-5-yl]acetamide], which “% Decrease in vascular volume” value [2] is on record?
Answer: The value was 95%.

Question: Which “% Decrease in vascular volume” value [2] does the source give for `COc1cc2c(c(OC)c1OC)-c1ccc(OC(=O)N3CCC(N4CCCCC4)CC3)cc1C(NC(C)=O)CC2` (centres unmarked) [Example 3, N-[3-(4-(1-piperidinyl)piperidinylcarbonyloxy)-9,10,11-trimethoxy-6,7-dihydro-5H-dibenzo[a,c]cyclohepten-5-yl]acetamide] here?
Answer: The value was 45%.

Question: For `CC(=O)O[C@@]12CO[C@@H]1C[C@H](O)[C@@]1(C)C(=O)[C@H](O)C3=C(C)[C@@H](OC(=O)[C@H](O)[C@@H](NC(=O)OC(C)(C)C)c4ccccc4)C[C@@](O)([C@@H](OC(=O)c4ccccc4)[C@H]21)C3(C)C` [docetaxel], which “vascular-damaging activity when administered at the MTD” value [3] is on record?
Answer: The value was “no vascular-damaging activity”.
